Assay results taken from paper PMC10321640, “The VIPR2-selective antagonist KS-133 changes macrophage polarization and exerts potent anti-tumor effects as a single agent and in combination with an anti-PD-1 antibody” (PLOS ONE, 2023).
Where a SMILES comes first, the peptide text is derived from it. Bridges are numbered along the chain shown (N, C = ends).

Columns and labels:
[1] = In vivo pharmacokinetic study, plasma LC-MS/MS; details: mouse, iv, 1 nmol/g body weight, male ICR mice, mean ± SD
Source text: These animal experiments were approved by the Animal Care and Use Committee of Osaka University (approval No. Douyaku 30-3-2) and conducted at Osaka University in accordance with the aforementioned guidelines. LC–MS/MS data were obtained using an LCMS-8060NX MS system (Shimadzu Corp., Kyoto, Japan) connected to a Nexera X3 UHPLC system (Shimadzu) equipped with a Peptide BEH C18 column (1.7 μm, 2.1 × 50 mm, Waters Corp., Milford, MA, USA). Mobile phase A was 0.1% formic acid in water, and mobile phase B was acetonitrile. The elution profile of mobile phase B was 5% isocratic between 0 to 1 min, linear gradient from 5% to 50% between 1 to 1.5 min, and increase from 50% to 75% between 1.5 to 3 min. The flow rate was 0.2 mL/min. For pharmacokinetic studies, free or nanoformulated KS-133 was administered intravenously or subcutaneously to male ICR mice at 1 nmol/g body weight. Serial blood samples were collected from the tail vein using heparinized capillary tubes at the indicated times after administration. The plasma (5 μL) obtained from each blood sample was mixed with 10 μL of 0.1% formic acid in 50% (v/v) acetonitrile/water, and subsequently, 50 μL of acetonitrile was added. After centrifugation, aliquots (50 μL) of the supernatant were mixed with equal volumes of 0.2% formic acid in water and then injected into the LC–MS/MS system. Pharmacokinetic parameters were obtained from the plasma concentration–time data by non-compartmental analysis using Phoenix WinNonlin Software (Certara Companies, NJ, USA).
Fig 4 Pharmacokinetic study of KS-133 and KS-133 NPs in mice. Concentration of peptides in plasma at indicated time points after administration of peptide with or without nanoformulation are presented. (A) Intravenous administration of KS-133 (n = 3, 1 nmol/g, mean ± SD). (B) Subcutaneous administration of KS-133 and KS-133 NPs (n = 5, 1 nmol/g, mean ± SD). (C) Blood samples were collected at the indicated times. The concentration of KS-133 in plasma was determined by LC–MS/MS (mean ± SD, *p < 0.05 by Student’s t-test). The pharmacokinetic parameters Cmax (μM), tmax (h), t1/2 (h), AUC0-t (μmol·h/L), AUC0-inf,pred (μmol·h/L), and MRTinf,pred (h) were calculated as described in the “Materials and methods” section. […]

[2] = cited from earlier work
Source text: Vasoactive intestinal peptide receptor 2 (VIPR2) is a class-B G protein-coupler receptor that participates in various physiological function by interacting with its ligand vasoactive intestinal peptide (VIP). VIP–VIPR2 signaling has attracted attention as a drug target in the fields of central nervous system diseases, oncology, and immunity. In 2021, we generated 13-mer bicyclic peptide KS-133 as a potent and selective antagonist to VIPR2 [1]. […] Generally, peptides are rapidly degraded by proteases, and even if they are resistant to degradation, they are prematurely excreted from the body via renal filtration. Thus, frequent dosing is needed, reducing patients’ quality of life. KS-133 is stable in plasma for at least 24 h. Unfortunately, daily dosing is required for the anti-tumor effects of KS-133 in vivo. A versatile method for improving the pharmacokinetics of peptides is conjugation with polyethylene glycol, but this req ...

AUC(0-inf) ([1]; i.v., n = 3, read-out: AUC0-inf, pred): 10.1 ± 1.73 µM·h | MRT ([1]; i.v., n = 3, read-out: MRTinf, pred): 58.8 ± 6.6 min | half-life ([1]; i.v., non-compartmental, n = 3, read-out: t1/2 (elimination half-life from plasma) (converted)): 40.8 min | AUC(0-t) ([1]; n = 3): 7.51 ± 1.77 µM·h
Structure (SMILES): CC[C@H](C)[C@H](NC(=O)[C@H](CC(C)C)NC(=O)[C@@H]1CC(=O)NCCCC[C@@H]2NC(=O)[C@@H]3CCCN3C(=O)[C@H](CC(C)C)NC(=O)[C@H](Cc3ccc(O)cc3)NC(=O)[C@@H]3CCCN3C(=O)[C@@H]3CCCN3C(=O)[C@@H](NC(C)=O)CSSC[C@H](NC(=O)[C@H](CC(C)C)NC(=O)[C@H](Cc3ccc(O)cc3)NC2=O)C(=O)N1)C(N)=O [KS-133] (Ac-CPPYLPKYLCDLI-NH2; disulfide 1-10; lactam 7-11)
protease degradation [2]: resistant to protease degradation | time stable in plasma ([2]; plasma): at least 24 h
